According to ChEMBL document CHEMBL1147609, “Comparison of 2-phenylspiroindenes and 2-phenylspiroindenediones as estrogen receptor ligands--modeling and binding data don't agree!” (Bioorg Med Chem Lett, 2004):

Key:
Estrogen receptor beta = Estrogen receptor beta (Homo sapiens, UniProt Q92731); assay: Binding affinity for estrogen receptor beta
Estrogen receptor = target: T1, Estrogen receptor (Homo sapiens, UniProt P03372); assay: Binding affinity for estrogen receptor alpha
T1 sequence (P03372 whole entry): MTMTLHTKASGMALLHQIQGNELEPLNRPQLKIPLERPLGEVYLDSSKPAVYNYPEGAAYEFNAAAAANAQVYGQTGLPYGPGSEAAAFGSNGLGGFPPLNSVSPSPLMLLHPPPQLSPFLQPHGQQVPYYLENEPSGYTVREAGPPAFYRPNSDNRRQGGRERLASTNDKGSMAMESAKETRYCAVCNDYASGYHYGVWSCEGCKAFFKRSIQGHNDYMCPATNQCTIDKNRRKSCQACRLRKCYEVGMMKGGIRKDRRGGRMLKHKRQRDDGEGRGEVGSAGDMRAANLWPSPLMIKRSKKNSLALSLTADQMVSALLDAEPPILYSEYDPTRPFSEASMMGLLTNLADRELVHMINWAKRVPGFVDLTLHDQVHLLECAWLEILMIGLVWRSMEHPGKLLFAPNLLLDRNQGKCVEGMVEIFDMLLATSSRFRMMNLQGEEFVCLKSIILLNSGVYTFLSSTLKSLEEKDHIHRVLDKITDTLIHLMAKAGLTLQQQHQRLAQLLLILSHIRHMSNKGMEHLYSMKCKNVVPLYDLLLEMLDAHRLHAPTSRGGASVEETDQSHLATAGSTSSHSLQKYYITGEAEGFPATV

Chain of Estrogen receptor beta (Q92731 whole entry): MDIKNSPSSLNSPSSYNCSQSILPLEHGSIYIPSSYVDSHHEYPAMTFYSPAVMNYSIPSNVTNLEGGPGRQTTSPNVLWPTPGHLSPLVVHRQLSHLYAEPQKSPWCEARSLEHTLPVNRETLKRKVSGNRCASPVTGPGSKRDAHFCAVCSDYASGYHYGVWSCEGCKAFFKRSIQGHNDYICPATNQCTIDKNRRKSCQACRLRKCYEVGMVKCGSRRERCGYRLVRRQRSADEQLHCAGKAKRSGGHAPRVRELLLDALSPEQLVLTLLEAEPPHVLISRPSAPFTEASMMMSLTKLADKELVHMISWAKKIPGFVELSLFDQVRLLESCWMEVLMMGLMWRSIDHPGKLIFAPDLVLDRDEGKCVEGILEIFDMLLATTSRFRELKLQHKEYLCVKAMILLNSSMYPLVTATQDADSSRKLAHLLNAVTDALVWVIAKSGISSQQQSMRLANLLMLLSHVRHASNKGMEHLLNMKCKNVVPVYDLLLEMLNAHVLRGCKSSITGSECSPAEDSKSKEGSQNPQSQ

In the case of `O=C1c2ccccc2C(=O)C12C(c1cccc(O)c1)=Cc1cc(O)ccc12`, the IC50 (Estrogen receptor beta) is reported as 329 nM and the IC50 (Estrogen receptor) is reported as 366 nM.
`Oc1ccc(C2=Cc3cc(O)ccc3C23Cc2ccc(OCCN4CCCCC4)cc2C3)cc1` (centres undefined) showed an IC50 (Estrogen receptor beta) of 1.8 nM.
For `Oc1cccc(C2=Cc3cc(O)ccc3C23Cc2ccccc2C3)c1`, the IC50 (Estrogen receptor beta) was 28 nM and the IC50 (Estrogen receptor) was 35 nM.
Work on `O=C1c2ccccc2C(=O)C12C(c1ccc(O)cc1)=Cc1cc(O)ccc12` yielded an IC50 (Estrogen receptor beta) of 103 nM and an IC50 (Estrogen receptor) of 91 nM.
`O=C1c2ccc(OCCN3CCCCC3)cc2C(=O)C12C(c1ccc(O)cc1)=Cc1cc(O)ccc12` (centres undefined) gave an IC50 (Estrogen receptor beta) of 223 nM and an IC50 (Estrogen receptor) of 172 nM.
